{"source": "patent US20120108665A1", "about": "“METHODS AND COMPOSITIONS FOR TREATING OPHTHALMIC CONDITIONS” (REVISION THERAPEUTICS, INC., priority 2009, published 2012)", "key": {"Ins2Akita/+ mice": {"tested_on": "Ins2Akita/+ mice", "test": "Serum glucose (hyperglycemia) monitoring in Ins2Akita/+ diabetic mice fed HPR-supplemented diet", "type": "in vivo, mouse", "conditions": "diet containing HPR 0.1% w/w ad libitum, glucose at 7-day intervals (FIG. 1B)", "description": "(§1) Ins2Akita littermates (aged 2-5 months) were divided into two groups. One group received a specialized rodent diet containing HPR (0.1%, w/w). The second group received a rodent chow which was not supplemented with HPR. Mice ingested these diets ad libitum for 3 months (except where indicated). Serum retinol and glucose levels were regularly monitored throughout the treatment period. At the end of the treatment period, the mice were euthanized and eyecups were prepared for biochemical and immunohistochemical analyses.\n(§2) Serum levels of retinol at day 30 (panel A) and glucose at 7-day intervals (panel B) are shown. The dashed line in panel B indicates mean glucose levels in wild-type mice."}, "serum RBP-retinol": {"tested_on": "serum RBP-retinol", "test": "Serum retinol monitoring in Ins2Akita/+ diabetic mice fed HPR-supplemented diet", "type": "in vivo, mouse", "conditions": "diet containing HPR 0.1% w/w ad libitum, retinol at day 30 (FIG. 1A)", "description": "as §1, §2"}, "[1]": {"tested_on": "advanced glycation end products (AGEs)", "test": "AGE immunoreactivity in retina tissue sections of Ins2Akita/+ mice", "type": "in vivo, mouse", "conditions": "HPR diet 0.1% w/w, 3 months (FIG. 3)", "description": "as §1"}, "RAGE": {"tested_on": "RAGE", "test": "RAGE immunoreactivity in retina tissue sections of Ins2Akita/+ mice", "type": "in vivo, mouse", "conditions": "HPR diet 0.1% w/w, 3 months (FIG. 2)", "description": "as §1\n(§3) Panels A and D are from Ins2Akita/+ mice fed the control diet. Panels B and E are from Ins2/Akita/+ mice fed the HPR-supplemented diet. Panels C and E are from age-matched wild-type mice. Arrows in panels A and D show disruption of the GCL and RAGE immunoreactivity."}, "[2]": {"tested_on": "primary human retinal microvascular endothelial cells", "test": "In vitro capillary tube formation assay", "type": "cell-based", "conditions": "HPR 10 mM; VEGF 10 ng/ml pretreatment; cells on Cultrex BME in 0.1% FBS (FIG. 6)", "source_text": "(§4) We set out to directly test the angiogenic properties of HPR in three different models of ocular angiogenesis. In the first, we induced angiogenesis in vitro by exposing primary human retinal microvascular endothelial cells to growth factors in the tube formation assay. Second, we utilized slow release pellets containing growth factor to induce angiogenesis in the corneal micropocket assay. Next, we looked at the effect of HPR treatment on angiogenesis in a transgenic animal model of early-onset retinal neovascularization, the very-low-density lipoprotein receptor (VLDLR) knockout mouse (vldlr−/−).\nIn parallel experiments, cells were pretreated with VEGF (10 ng/ml) and HPR ([…]) respectively. The cells were then plated in 0.1% FBS or 0.1% FBS-[…] HPR."}, "ganglion cell layer": {"tested_on": "ganglion cell layer", "test": "Retinal histology (toludine blue staining) of ganglion cell layer in Ins2Akita/+ mice", "type": "in vivo, mouse", "conditions": "HPR diet 0.1% w/w", "description": "as §1, §3"}, "VEGF": {"tested_on": "VEGF", "test": "VEGF expression in retina of Ins2Akita/+ mice", "type": "in vivo, mouse", "conditions": "HPR diet 0.1% w/w, 3 months (FIG. 5)", "description": "as §1"}, "VLDLR-/- knockout mice": {"tested_on": "VLDLR-/- knockout mice", "test": "Retinal vascular leakage in VLDLR-/- knockout mice (retinal neovascularization model)", "type": "in vivo, mouse", "conditions": "0.1% HPR (w/w) chow 8 weeks, retinal flat mounts after FITC-dextran perfusion (FIG. 8)", "source_text": "as §4\nVLDLR^−/− mice were fed either control or 0.1% HPR (w/w)-supplemented chow ad libitum for 8 weeks. The extent of retinal leakage was then assessed in retinal flat mounts after FITC-dextran perfusion."}, "phosphorylated p38 MAPK": {"tested_on": "phosphorylated p38 MAPK", "test": "Phosphorylated p38 MAPK immunoreactivity in RPE of Ins2Akita/+ mice", "type": "in vivo, mouse", "conditions": "HPR diet 0.1% w/w, 3 months (FIG. 4)", "description": "as §1\nTissue sections from these mice were probed for phosphorylated p38 MAPK, a mediator of apoptotic cell death."}, "wild type Balb/c mice": {"tested_on": "wild type Balb/c mice", "test": "In vivo corneal micropocket assay (bFGF pellets)", "parameters": "species or system mouse", "conditions": "0.1% (w/w) HPR chow 8 weeks, bFGF ~80 ng/pellet, assessed 5 days later, FITC-dextran (FIG. 7)", "source_text": "as §4\nAt the end of this period, standardized slow release pellets containing bFGF (˜80 ng/pellet) were surgically inserted into the normally avascular corneas of the mice in the study. Blank pellets were implanted in the left eye. Vessel formation was assessed 5 days later when the mice were perfused with FITC-dextran and the eyes were enucleated and photographed. FIG. 7: Bright field (A-F) and fluorescence (G-L) images showing vessel growth (arrows) and the approximate location of the pellets (ovals)."}}}
{"smiles": "CC1=C(/C=C/C(C)=C/C=C/C(C)=C/C(=O)Nc2ccc(O)cc2)C(C)(C)CCC1", "note": "[HPR, N-(4-hydroxyphenyl)retinamide]", "values": [{"measurement": "effect on hyperglycemia (serum glucose)", "setting": "Ins2Akita/+ mice", "result": "has no effect"}, {"measurement": "serum RBP-retinol", "setting": "serum RBP-retinol", "result": "significantly reduces"}, {"measurement": "AGE immunoreactivity in the retina", "setting": "[1]", "result": "significantly reduced"}, {"measurement": "RAGE immunoreactivity in the GCL", "setting": "RAGE", "result": "very little"}, {"measurement": "tube formation", "setting": "[2]", "result": "reduced"}, {"measurement": "preservation of ganglion cell layer and inner nuclear layer", "setting": "ganglion cell layer; 3 months (FIG. 5)", "result": "remarkable preservation"}, {"measurement": "integrity of the ganglion cell layer (GCL)", "setting": "ganglion cell layer; 3 months, toludine blue staining (FIG. 2)", "result": "well preserved"}, {"measurement": "VEGF expression in all retina sublayers", "setting": "VEGF", "result": "dramatically reduced"}, {"measurement": "extent of retinal vascular leakage", "setting": "VLDLR-/- knockout mice", "result": "significant reduction"}, {"measurement": "p38 MAPK immunoreactivity in the RPE", "setting": "phosphorylated p38 MAPK", "result": "barely detectable"}, {"measurement": "bFGF-induced corneal vessel growth (angiogenic response)", "setting": "wild type Balb/c mice", "result": "striking reduction"}]}
